Consider six compounds from article PMC4085075, “Characterization of Estrogen and Androgen Activity of Food Contact Materials by Different In Vitro Bioassays (YES, YAS, ERα and AR CALUX) and Chromatographic Analysis (GC-MS, HPLC-MS)” (PLoS ONE, 2014).

The test system of one test is MCF7. Also noted: method as in PMID 11485868. The note with it: human cell-based MCF7 proliferation assay; cited from earlier work.
The target of test [1] is T1, human estrogen receptor (hERα) (Homo sapiens, UniProt P03372).
T1 construct: expressed in transfected cells; host or cells: recombinant yeast strain (provided by Wagner and Oehlmann, Frankfurt; by permission of Routledge and Sumpter)
T1 sequence (P03372 1-595): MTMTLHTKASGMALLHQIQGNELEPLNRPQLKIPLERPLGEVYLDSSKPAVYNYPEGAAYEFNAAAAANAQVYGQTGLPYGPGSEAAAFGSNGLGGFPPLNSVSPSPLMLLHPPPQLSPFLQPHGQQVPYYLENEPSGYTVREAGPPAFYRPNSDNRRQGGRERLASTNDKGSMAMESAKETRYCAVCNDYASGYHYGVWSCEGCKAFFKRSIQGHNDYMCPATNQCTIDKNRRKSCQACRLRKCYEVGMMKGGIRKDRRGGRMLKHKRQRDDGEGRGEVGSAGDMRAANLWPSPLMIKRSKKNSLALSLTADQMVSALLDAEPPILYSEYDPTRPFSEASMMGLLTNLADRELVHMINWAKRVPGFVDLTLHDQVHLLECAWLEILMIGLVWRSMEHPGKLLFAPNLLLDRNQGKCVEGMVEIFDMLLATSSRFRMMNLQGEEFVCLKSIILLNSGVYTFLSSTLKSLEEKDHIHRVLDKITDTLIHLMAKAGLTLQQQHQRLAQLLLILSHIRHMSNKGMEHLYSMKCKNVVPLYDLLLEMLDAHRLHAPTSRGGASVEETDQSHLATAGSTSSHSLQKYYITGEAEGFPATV
In words: Yeast estrogen screen (YES). The format is cell-based. As to the method:
(§1) Briefly, different resin types of food packaging were migrated with food simulants for 10 days at 60°C. […] From every sample two independent migrates were prepared, subsequently concentrated by solid phase extraction and tested in the bioassays. […] For each migration a solvent blank of each food simulant was migrated in a glass bottle with a polytetrafluorethylene-coated cap. Prior to solid phase extraction, 1 ml and 20 ml of each migrate were set aside for HPLC and GC analysis.
(§2) After 10 days of migration, solid phase extraction by Waters Oasis HLB columns (5 cc/200 mg) was used to extract hormone active components from the food simulants. As described in detail by Kirchnawy et al. sample migrates diluted to 10% ethanol and adjusted to pH 3 were drawn through the columns and eluted into […] DMSO. Elutes were evaporated under a nitrogen stream to a final volume of 150–200 µl and stored at 4°C prior to analysis by YES, YAS and CALUX bioassays. Extraction recoveries and reproducibility of the solid phase extraction were previously determined by Kirchnawy et al..
The yeast strain contains the stably integrated human estrogen receptor (hERα) gene and an expression plasmid containing the reporter gene lacZ under the control of estrogen responsive elements (ERE). The activation of the hERα by the binding of an estrogen active substance leads to the expression of β-galactosidase, which converts the substrate chlorophenol red-β-D-galactopyranoside (CPRG) into chlorophenol red.
The analysis of food contact materials was conducted as previously described by Kirchnawy et al.. Briefly, yeast cells were incubated with fresh media supplemented with 1% of the respective DMSO sample extracts on a 96-well microtiter plate for 24 h. […] The regression was calculated by MS Excel, using the formula for a linear regression curve (y = kx + d).

Test [2] deals with T2, human estrogen receptor alpha (hERα) (Homo sapiens, UniProt P03372).
T2 construct: host or cells: human U2-OS osteosarcoma cells
T2 sequence (P03372 1-595): T1 sequence (P03372 1-595)
In words: ERα CALUX reporter gene assay in U2-OS cells. The format is cell-based. The note with it: for EC50: footnote a: inhibition of U2-OS cell growth at higher concentrations. As to the method:
as §1, §2
The ERα CALUX is a human U2-OS cell line stably co-transfected with an expression construct for the human estrogen receptor alpha (hERα). Activation of the hERα by the binding of an estrogen active substance leads to the transcription of luciferase, which emits light when luciferin is added as a substrate.
Assay procedure was conducted as previously described by Sonneveld et al. with modifications. U2-OS cells were plated at a concentration of 10 000 cells/well with 100 µl phenol red-free Dulbecco's modified eagle medium (DMEM) (supplemented with dextran-coated charcoal-stripped FCS) in a 96-well microtiter plate. After 24 h incubation at 37°C in a humidified atmosphere with 5% CO2, DMEM medium was refreshed and cells were incubated for another 24 h with 0.5% of the respective DMSO sample extract. After examining cell growth under a microscope to ensure that sample extracts had no cytotoxic or growth inhibiting effects, 50 µl Steady Glo Luciferase-Mix (Promega) was added to each well and incubated for 15 min for cell lysis. This was followed by measuring the luciferase activity of each well using a multilabel reader (Victor^3, Perkin Elmer).

Details of test [3]: method as in PMID 21050888. The note with it: cited from earlier work.
The target in test [4] is T3, human androgen receptor (hAR) (Homo sapiens, UniProt P10275).
T3 sequence (P10275 1-920): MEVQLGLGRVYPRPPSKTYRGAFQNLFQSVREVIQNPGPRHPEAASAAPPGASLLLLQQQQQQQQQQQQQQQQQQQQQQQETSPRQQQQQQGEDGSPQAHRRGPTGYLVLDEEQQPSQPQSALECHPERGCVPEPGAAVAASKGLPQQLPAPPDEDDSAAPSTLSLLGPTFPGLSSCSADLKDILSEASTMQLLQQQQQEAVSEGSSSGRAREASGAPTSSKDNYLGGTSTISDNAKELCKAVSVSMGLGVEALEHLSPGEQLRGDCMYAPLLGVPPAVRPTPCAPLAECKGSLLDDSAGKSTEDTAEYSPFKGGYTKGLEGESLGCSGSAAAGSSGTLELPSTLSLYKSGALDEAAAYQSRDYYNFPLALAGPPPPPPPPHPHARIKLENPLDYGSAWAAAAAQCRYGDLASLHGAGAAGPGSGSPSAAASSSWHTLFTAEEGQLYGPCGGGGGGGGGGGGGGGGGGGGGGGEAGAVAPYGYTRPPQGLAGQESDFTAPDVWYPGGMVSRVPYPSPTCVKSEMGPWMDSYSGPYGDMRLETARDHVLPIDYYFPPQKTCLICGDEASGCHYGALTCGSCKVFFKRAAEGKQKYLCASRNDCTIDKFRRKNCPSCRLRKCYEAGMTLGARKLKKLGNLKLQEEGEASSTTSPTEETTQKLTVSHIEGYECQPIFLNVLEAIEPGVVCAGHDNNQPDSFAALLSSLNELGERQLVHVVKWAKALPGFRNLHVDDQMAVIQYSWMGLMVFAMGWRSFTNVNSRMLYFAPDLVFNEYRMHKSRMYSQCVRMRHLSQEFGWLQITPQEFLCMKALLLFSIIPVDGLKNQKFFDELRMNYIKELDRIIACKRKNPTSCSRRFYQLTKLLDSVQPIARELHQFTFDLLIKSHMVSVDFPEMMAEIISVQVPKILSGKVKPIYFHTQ
In words: Yeast androgen screen (YAS). It is filed as cell-based. The note with it: footnote b: inhibition of yeast growth at higher concentrations. As to the method:
as §1, §2

For test [5], the target named is T3, human androgen receptor (hAR). Briefly: AR CALUX reporter gene assay in U2-OS cells. Particulars: footnote a: inhibition of U2-OS cell growth at higher concentrations. It is filed as cell-based. Also noted: host or cells: human U2-OS osteosarcoma cells. As to the method: as §1, §2
The test system of the next test is CHO-K1 cells. Also noted: method as in PMID 18261797. The note with it: cited from earlier work.
In another test the test system is rainbow trout. Also noted: method as in PMID 18261797. Particulars: cited from earlier work.
Test [6] has as its system kidney fibroblast cell 293T and human breast cancer cells ZR-75. Also noted: method as in PMID 7556011. The note with it: at a concentration of 100 µmol/l; cited from earlier work.
The mark [7] stands for this setting: agonist mode, footnote b: inhibition of yeast growth at higher concentrations, read-out: YES Estrogen activity EC50.
The mark [8] stands for this setting: antagonist mode, spiked with 80 pmol/l 17β-estradiol, footnote b: inhibition of yeast growth at higher concentrations, read-out: YES Antiestrogen activity EC50.
The mark [9] stands for this setting: agonist mode, read-out: ER CALUX Estrogen activity EC50.
Setting [10] is: antagonist mode, spiked with 8 pmol/l 17β-estradiol, read-out: ER CALUX Antiestrogen activity EC50.

The structures appear in SMILES notation. Read-outs that look alike come from different tables or passages of the source. Where only a bound is given, the exact number is not on record here.

For orientation: EC50 means the midpoint of the concentration-response curve.

As for `c1ccc(C2CCC2c2ccccc2)cc1` (stereo not drawn) [1,2-diphenylcyclobutane], in the test with MCF7, the “times less active than 17β-estradiol” value is given as 4*10^5.

In the case of `CCCCC(CC)COC(=O)CCCCC(=O)OCC(CC)CCCC` (stereo not drawn) [diethylhexyladipate (DEHA), diethylhexyladipate], in test [1] (agonist mode), the “estrogen activity in the YES (in words)” value is “did not show any activity”. For the same compound, the half-maximal effective concentration (EC50) in test [1] (setting [7]) is over 1000 µM; in test [1] (setting [8]), over 1000 µM; in test [2] (setting [9]), over 500 µM; in test [2] (setting [10]), over 500 µM. In addition, in test [2] (agonist mode), the “estrogen activity in the ERα CALUX (in words)” value was “did not show any activity”. The “estrogen activity using the E-Screen” value in test [3] is recorded as “tested positive for estrogen activity”.

Regarding `c1ccc(CCCc2ccccc2)cc1` [1,3-diphenylpropane], the “estrogen activity in the YES (in words)” value in test [1] (agonist mode) is “tested positive for estrogen activity”. Further, the EC50 in test [1] (setting [7]) was 500 µM; in test [1] (setting [8]), over 1000 µM; in test [2] (setting [9]), 40 µM; in [2] (setting [10]), over 500 µM; in [4] (agonist mode, read-out: YAS Androgen activity EC50), over 1000 µM; in [4] (antagonist mode, spiked with 2.4 nmol/l DHT, read-out: YAS Antiandrogen activity EC50), 30 µM. Further, the EC50 in test [5] (agonist mode, read-out: AR CALUX Androgen activity EC50) was over 500 µM; in [5] (antagonist mode, spiked with 400 pmol/l DHT, read-out: AR CALUX Antiandrogen activity EC50), 30 µM. In addition, the “estrogen activity in the ERα CALUX (in words)” value in [2] (agonist mode) was “tested positive for estrogen activity”.

For the compound `CC(C)(C)c1ccc(O)c(C(C)(C)C)c1` [2,4-di-tert-butylphenol], the concentration giving a half-maximal response (EC50) in test [1] (setting [7]) is over 10 µM; in [1] (setting [8]) it was over 10 µM; in test [2] (setting [9]), over 20 µM; in test [2] (setting [10]) it was over 20 µM. Further, the “androgen antagonist in CHO-K1 cells” value in the test with CHO-K1 cells is on record as “androgen antagonist”. The “androgen antagonist in rainbow trout” value in the test on rainbow trout is given as “androgen antagonist”.

With `Cc1cc(C(C)(C)C)c(O)c(C(C)(C)C)c1` [2,6-bis(1,1-dimethylethyl)-4-methylphenol], the “estrogen activity in 293T and ZR-75 cells” value in [6] is recorded as “tested positive for estrogen”.

As for `CC(C)(c1ccccc1)c1ccc(O)c(C(C)(C)c2ccccc2)c1` [2,4-di-cumylphenol], the concentration for a half-maximal effect (EC50) in [1] is over 300 µM; in test [2] (ER CALUX Antiestrogen activity EC50, antagonist mode, spiked with 8 pmol/l 17β-estradiol) it was over 20 µM; in test [2] (ER CALUX Estrogen activity EC50, agonist mode), 5 µM. For the same compound, in [1] (agonist mode), the “estrogen activity in the YES (in words)” value is recorded as “showed estrogen activity”. Further, in test [2] (agonist mode), the “estrogen activity in the ERα CALUX (in words)” value is on record as “showed estrogen activity”.
